According to PubChem BioAssay (NCI):
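Exposure lasted 48 hours, with cells grown in 96-well plates and compounds tested at five concentrations. TGI: concentration producing complete growth inhibition.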

Legend:
Assay in all cases: NCI tumour cell line growth inhibition, 48 h
[1] = test system: CCRF-CEM leukemia
[2] = test system: NCI-H226 lung
[3] = test system: SR leukemia
[4] = test system: SK-MEL-5 melanoma
[5] = test system: EKVX NSCLC
[6] = test system: SF-539 CNS
[7] = test system: A549 NSCLC
[8] = test system: HOP-92 NSCLC
[9] = test system: SK-MEL-2 melanoma
[10] = test system: ACHN renal
[11] = test system: IGROV1 ovarian
[12] = test system: U251 CNS
[13] = test system: SW-620 colon
[14] = test system: SNB-19 CNS
[15] = test system: TK-10 renal
[16] = test system: MOLT-4 leukemia
[17] = test system: UO-31 renal
[18] = test system: 786-0 renal
[19] = test system: SK-OV-3 ovarian
[20] = test system: DMS 114 small cell lung
[21] = test system: K-562 leukemia
[22] = test system: SF-295 CNS
[23] = test system: HL-60(TB) leukemia
[24] = test system: NCI-H23 lung
[25] = test system: KM12 colon
[26] = test system: M14 melanoma
[27] = test system: NCI-H460 lung
[28] = test system: RPMI-8226 leukemia
[29] = test system: HT29 colon
[30] = test system: NCI-H522 lung
[31] = test system: RXF 393 renal
[32] = test system: M19-MEL melanoma
[33] = test system: UACC-257 melanoma
[34] = test system: OVCAR-5 ovarian
[35] = test system: DMS 273 small cell lung
[36] = test system: SN12C renal
[37] = test system: OVCAR-8 ovarian
[38] = test system: DLD-1 colon
[39] = test system: MALME-3M melanoma
[40] = test system: SF-268 CNS
[41] = test system: COLO 205 colon
[42] = test system: OVCAR-3 ovarian
[43] = test system: HOP-18 NSCLC
[44] = test system: HCC-2998 colon
[45] = test system: HCT-15 colon
[46] = test system: SK-MEL-28 melanoma
[47] = test system: LXFL 529 NSCLC
[48] = test system: XF 498 CNS
[49] = test system: KM20L2 colon
[50] = test system: CAKI-1 renal
[51] = test system: SNB-75 CNS
[52] = test system: HOP-62 NSCLC
[53] = test system: LOX IMVI melanoma
[54] = test system: OVCAR-4 ovarian
[55] = test system: UACC-62 melanoma
[56] = test system: HCT-116 colon
[57] = test system: A498 renal
[58] = test system: SNB-78 CNS

CC1CCC2(OCCO2)[C@]2(C)CC(O)C(=O)C=C12 (some centres not stated)
TGI [1]: > 100 µM | TGI [2]: > 100 µM | TGI [3]: > 100 µM | TGI [4]: > 100 µM | TGI [5]: > 100 µM | TGI [6]: > 100 µM | TGI [7]: > 100 µM | TGI [8]: > 100 µM | TGI [9]: > 100 µM | TGI [10]: > 100 µM | TGI [11]: > 100 µM | TGI [12]: > 100 µM | TGI [13]: > 100 µM | TGI [14]: > 100 µM | TGI [15]: > 100 µM | TGI [16]: > 100 µM | TGI [17]: > 100 µM | TGI [18]: > 100 µM | TGI [19]: > 100 µM | TGI [20]: > 100 µM | TGI [21]: > 100 µM | TGI [22]: > 100 µM | TGI [23]: > 100 µM | TGI [24]: > 100 µM | TGI [25]: > 100 µM | TGI [26]: > 100 µM | TGI [27]: > 100 µM | TGI [28]: > 100 µM | TGI [29]: > 100 µM | TGI [30]: > 100 µM | TGI [31]: > 100 µM | TGI [32]: > 100 µM | TGI [33]: > 100 µM | TGI [34]: > 100 µM | TGI [35]: > 100 µM | TGI [36]: > 100 µM | TGI [37]: > 100 µM | TGI [38]: > 100 µM | TGI [39]: > 100 µM | TGI [40]: > 100 µM | TGI [41]: > 100 µM | TGI [42]: > 100 µM | TGI [43]: > 100 µM | TGI [44]: > 100 µM | TGI [45]: > 100 µM | TGI [46]: > 100 µM | TGI [47]: > 100 µM | TGI [48]: > 100 µM

CCCCCCCCCCCCCC(=O)OC1C(O)C(CO)OC(OC)C1NC(=O)N(CCCl)N=O (configuration not stated)
TGI [2]: > 100 µM | TGI [3]: 93.4 µM | TGI [4]: > 100 µM | TGI [6]: 63.5 µM | TGI [7]: > 100 µM | TGI [49]: > 100 µM | TGI [9]: > 100 µM | TGI [10]: > 100 µM | TGI [11]: > 100 µM | TGI [12]: > 100 µM | TGI [13]: > 100 µM | TGI [14]: > 100 µM | TGI [15]: > 100 µM | TGI [16]: 59.8 µM | TGI [17]: > 100 µM | TGI [50]: > 100 µM | TGI [51]: > 100 µM | TGI [52]: > 100 µM | TGI [21]: > 100 µM | TGI [22]: > 100 µM | TGI [24]: > 100 µM | TGI [25]: > 100 µM | TGI [26]: > 100 µM | TGI [27]: > 100 µM | TGI [28]: > 100 µM | TGI [29]: > 100 µM | TGI [30]: > 100 µM | TGI [31]: > 100 µM | TGI [53]: 89.9 µM | TGI [32]: > 100 µM | TGI [33]: 86.8 µM | TGI [34]: > 100 µM | TGI [35]: > 100 µM | TGI [36]: > 100 µM | TGI [37]: > 100 µM | TGI [38]: > 100 µM | TGI [39]: > 100 µM | TGI [54]: > 100 µM | TGI [40]: > 100 µM | TGI [41]: > 100 µM | TGI [55]: > 100 µM | TGI [42]: > 100 µM | TGI [43]: > 100 µM | TGI [44]: > 100 µM | TGI [45]: > 100 µM | TGI [46]: > 100 µM | TGI [47]: > 100 µM | TGI [48]: > 100 µM

C=CCSc1ncnc2c1ncn2C1OC(CO)C(O)C1O (configuration not stated)
TGI [1]: > 100 µM | TGI [56]: > 100 µM | TGI [2]: > 100 µM | TGI [3]: > 100 µM | TGI [4]: > 100 µM | TGI [5]: > 100 µM | TGI [6]: > 100 µM | TGI [7]: > 100 µM | TGI [8]: > 100 µM | TGI [49]: > 100 µM | TGI [9]: > 100 µM | TGI [10]: > 100 µM | TGI [11]: > 100 µM | TGI [12]: > 100 µM | TGI [13]: > 100 µM | TGI [14]: > 100 µM | TGI [15]: > 100 µM | TGI [16]: > 100 µM | TGI [17]: > 100 µM | TGI [18]: > 100 µM | TGI [50]: > 100 µM | TGI [51]: > 100 µM | TGI [57]: > 100 µM | TGI [52]: > 100 µM | TGI [19]: > 100 µM | TGI [20]: 70.4 µM | TGI [21]: > 100 µM | TGI [22]: > 100 µM | TGI [23]: > 100 µM | TGI [24]: > 100 µM | TGI [25]: > 100 µM | TGI [26]: > 100 µM | TGI [27]: > 100 µM | TGI [28]: > 100 µM | TGI [29]: > 100 µM | TGI [30]: > 100 µM | TGI [58]: > 100 µM | TGI [53]: > 100 µM | TGI [32]: > 100 µM | TGI [33]: > 100 µM | TGI [34]: > 100 µM | TGI [35]: > 100 µM | TGI [36]: > 100 µM | TGI [37]: 18.5 µM | TGI [38]: > 100 µM | TGI [39]: > 100 µM | TGI [54]: > 100 µM | TGI [40]: > 100 µM | TGI [41]: > 100 µM | TGI [55]: > 100 µM | TGI [42]: > 100 µM | TGI [43]: > 100 µM | TGI [44]: > 100 µM | TGI [45]: > 100 µM | TGI [46]: > 100 µM | TGI [48]: > 100 µM
